In ChEMBL document CHEMBL1201862, “PubChem BioAssay data set” (2004):
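Each compound was tested at five concentrations against cells in 96-well plates for 48 hours. Abbreviation: GI50, concentration required for 50% inhibition of growth.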 Calls of active or inactive are those of the source. Rule as the data show it: active = GI50 up to about 1.1 µM and inactive = higher.

What was measured:
Assay in all cases: DTP human tumour cell line panel, 48 h
786-0 = system: 786-0
A498 = system: A498
A549 = system: A549
ACHN = system: ACHN
BT-549 = system: BT-549
CAKI-1 = system: CAKI-1
CCRF-CEM = system: CCRF-CEM
COLO 205 = system: COLO 205
DU-145 = system: DU-145
EKVX = system: EKVX
HCC 2998 = system: HCC 2998
HCT-116 = system: HCT-116
HCT-15 = system: HCT-15
HL-60 = system: HL-60
HT-29 = system: HT-29
Hs-578T = system: Hs-578T
IGROV-1 = system: IGROV-1
K562 = system: K562
KM12 = system: KM12
LOX IMVI = system: LOX IMVI
M14 = system: M14
MCF7 = system: MCF7
MDA-MB-231 = system: MDA-MB-231
MDA-MB-435 = system: MDA-MB-435
MDA-N = system: MDA-N
MOLT-4 = system: MOLT-4
Malme-3M = system: Malme-3M
NCI-H226 = system: NCI-H226
NCI-H23 = system: NCI-H23
NCI-H460 = system: NCI-H460
NCI/ADR-RES = system: NCI/ADR-RES
OVCAR-3 = system: OVCAR-3
OVCAR-4 = system: OVCAR-4
OVCAR-5 = system: OVCAR-5
OVCAR-8 = system: OVCAR-8
PC-3 = system: PC-3
RXF 393 = system: RXF 393
SF-268 = system: SF-268
SF-295 = system: SF-295
SF-539 = system: SF-539
SK-MEL-28 = system: SK-MEL-28
SK-MEL-2 = system: SK-MEL-2
SK-MEL-5 = system: SK-MEL-5
SK-OV-3 = system: SK-OV-3
SN12C = system: SN12C
SNB-19 = system: SNB-19
SNB-75 = system: SNB-75
SW-620 = system: SW-620
T47D = system: T47D
TK-10 = system: TK-10
U-251 = system: U-251
UACC-257 = system: UACC-257
UACC-62 = system: UACC-62
UO-31 = system: UO-31
HOP-62 = system: HOP-62
HOP-92 = system: HOP-92
NCI-H522 = system: NCI-H522
RPMI-8226 = system: RPMI-8226
SR = system: SR

SMILES: N#CC(c1ccccc1)N(CCOCCOCCN(C(=O)c1cccc2ccccc12)C(C#N)c1ccccc1)C(=O)c1cccc2ccccc12 (centres undefined)
- GI50 (786-0): > 100 µM (inactive)
- GI50 (A498): > 100 µM (inactive)
- GI50 (A549): 17.5 µM (inactive)
- GI50 (ACHN): > 100 µM (inactive)
- GI50 (BT-549): > 100 µM (inactive)
- GI50 (CAKI-1): > 100 µM (inactive)
- GI50 (CCRF-CEM): > 100 µM (inactive)
- GI50 (COLO 205): 52.1 µM (inactive)
- GI50 (DU-145): > 100 µM (inactive)
- GI50 (EKVX): > 100 µM (inactive)
- GI50 (HCC 2998): > 100 µM (inactive)
- GI50 (HCT-116): 9.55 µM (inactive)
- GI50 (HCT-15): > 100 µM
- GI50 (HL-60): 31.7 µM (inactive)
- GI50 (HT-29): > 100 µM (inactive)
- GI50 (Hs-578T): > 100 µM (inactive)
- GI50 (IGROV-1): > 100 µM (inactive)
- GI50 (K562): 42.4 µM (inactive)
- GI50 (KM12): > 100 µM (inactive)
- GI50 (LOX IMVI): > 100 µM (inactive)
- GI50 (M14): > 100 µM (inactive)
- GI50 (MCF7): > 100 µM (inactive)
- GI50 (MDA-MB-231): > 100 µM (inactive)
- GI50 (MDA-MB-435): > 100 µM (inactive)
- GI50 (MDA-N): > 100 µM (inactive)
- GI50 (MOLT-4): 8.15 µM (inactive)
- GI50 (Malme-3M): > 100 µM (inactive)
- GI50 (NCI-H226): > 100 µM (inactive)
- GI50 (NCI-H23): > 100 µM (inactive)
- GI50 (NCI-H460): 87.1 µM (inactive)
- GI50 (NCI/ADR-RES): > 100 µM (inactive)
- GI50 (OVCAR-3): > 100 µM (inactive)
- GI50 (OVCAR-4): > 100 µM (inactive)
- GI50 (OVCAR-5): > 100 µM (inactive)
- GI50 (OVCAR-8): > 100 µM (inactive)
- GI50 (PC-3): > 100 µM (inactive)
- GI50 (RXF 393): > 100 µM (inactive)
- GI50 (SF-268): > 100 µM (inactive)
- GI50 (SF-295): > 100 µM (inactive)
- GI50 (SF-539): > 100 µM (inactive)
- GI50 (SK-MEL-28): > 100 µM (inactive)
- GI50 (SK-MEL-2): > 100 µM (inactive)
- GI50 (SK-MEL-5): > 100 µM (inactive)
- GI50 (SK-OV-3): > 100 µM (inactive)
- GI50 (SN12C): > 100 µM (inactive)
- GI50 (SNB-19): > 100 µM (inactive)
- GI50 (SNB-75): > 100 µM (inactive)
- GI50 (SW-620): > 100 µM (inactive)
- GI50 (T47D): 4.1 µM (inactive)
- GI50 (TK-10): > 100 µM (inactive)
- GI50 (U-251): > 100 µM (inactive)
- GI50 (UACC-257): > 100 µM (inactive)
- GI50 (UACC-62): > 100 µM (inactive)
- GI50 (UO-31): > 100 µM (inactive)

SMILES: CC(=O)N1C(OCc2ccccc2)CCN1c1ccccc1 (centres undefined)
- GI50 (786-0): > 10 µM (inactive)
- GI50 (A549): > 10 µM (inactive)
- GI50 (ACHN): > 10 µM (inactive)
- GI50 (BT-549): > 10 µM (inactive)
- GI50 (CAKI-1): > 10 µM (inactive)
- GI50 (CCRF-CEM): > 10 µM (inactive)
- GI50 (COLO 205): > 10 µM (inactive)
- GI50 (DU-145): > 10 µM (inactive)
- GI50 (HCT-116): > 10 µM (inactive)
- GI50 (HCT-15): > 10 µM
- GI50 (HL-60): > 10 µM (inactive)
- GI50 (HOP-62): > 10 µM (inactive)
- GI50 (HOP-92): 3.29 µM (inactive)
- GI50 (HT-29): > 10 µM (inactive)
- GI50 (Hs-578T): > 10 µM (inactive)
- GI50 (IGROV-1): > 10 µM (inactive)
- GI50 (K562): > 10 µM (inactive)
- GI50 (LOX IMVI): > 10 µM (inactive)
- GI50 (M14): > 10 µM (inactive)
- GI50 (MDA-MB-231): > 10 µM (inactive)
- GI50 (MDA-MB-435): > 10 µM (inactive)
- GI50 (MDA-N): > 10 µM (inactive)
- GI50 (MOLT-4): > 10 µM (inactive)
- GI50 (Malme-3M): > 10 µM (inactive)
- GI50 (NCI-H226): > 10 µM (inactive)
- GI50 (NCI-H23): > 10 µM (inactive)
- GI50 (NCI-H460): > 10 µM (inactive)
- GI50 (NCI-H522): > 10 µM (inactive)
- GI50 (NCI/ADR-RES): > 10 µM (inactive)
- GI50 (OVCAR-3): > 10 µM (inactive)
- GI50 (OVCAR-4): > 10 µM (inactive)
- GI50 (OVCAR-5): > 10 µM (inactive)
- GI50 (OVCAR-8): > 10 µM (inactive)
- GI50 (PC-3): > 10 µM (inactive)
- GI50 (RPMI-8226): > 10 µM (inactive)
- GI50 (RXF 393): > 10 µM (inactive)
- GI50 (SF-268): > 10 µM (inactive)
- GI50 (SF-295): > 10 µM (inactive)
- GI50 (SF-539): > 10 µM (inactive)
- GI50 (SK-MEL-28): > 10 µM (inactive)
- GI50 (SK-MEL-2): > 10 µM (inactive)
- GI50 (SK-MEL-5): > 10 µM (inactive)
- GI50 (SK-OV-3): > 10 µM (inactive)
- GI50 (SN12C): > 10 µM (inactive)
- GI50 (SNB-19): > 10 µM (inactive)
- GI50 (SNB-75): > 10 µM (inactive)
- GI50 (SR): > 10 µM (inactive)
- GI50 (SW-620): > 10 µM (inactive)
- GI50 (T47D): > 10 µM (inactive)
- GI50 (TK-10): > 10 µM (inactive)
- GI50 (UACC-257): > 10 µM (inactive)
- GI50 (UO-31): > 10 µM (inactive)

SMILES: NC(=O)c1cccc(OCC(O)CO)c1 (centres undefined)
- GI50 (786-0): > 100 µM (inactive)
- GI50 (A498): > 100 µM (inactive)
- GI50 (A549): > 100 µM (inactive)
- GI50 (ACHN): > 100 µM (inactive)
- GI50 (BT-549): > 100 µM (inactive)
- GI50 (CAKI-1): > 100 µM (inactive)
- GI50 (CCRF-CEM): > 100 µM (inactive)
- GI50 (COLO 205): > 100 µM (inactive)
- GI50 (DU-145): > 100 µM (inactive)
- GI50 (EKVX): > 100 µM (inactive)
- GI50 (HCC 2998): > 100 µM (inactive)
- GI50 (HCT-116): > 100 µM (inactive)
- GI50 (HCT-15): > 100 µM
- GI50 (HL-60): > 100 µM (inactive)
- GI50 (HOP-62): > 100 µM (inactive)
- GI50 (HT-29): > 100 µM (inactive)
- GI50 (Hs-578T): > 100 µM (inactive)
- GI50 (IGROV-1): > 100 µM (inactive)
- GI50 (K562): > 100 µM (inactive)
- GI50 (KM12): > 100 µM (inactive)
- GI50 (M14): > 100 µM (inactive)
- GI50 (MCF7): > 100 µM (inactive)
- GI50 (MDA-MB-231): > 100 µM (inactive)
- GI50 (MDA-N): > 100 µM (inactive)
- GI50 (MOLT-4): > 100 µM (inactive)
- GI50 (NCI-H226): > 100 µM (inactive)
- GI50 (NCI-H23): > 100 µM (inactive)
- GI50 (NCI-H460): > 100 µM (inactive)
- GI50 (NCI-H522): > 100 µM (inactive)
- GI50 (NCI/ADR-RES): > 100 µM (inactive)
- GI50 (OVCAR-3): > 100 µM (inactive)
- GI50 (OVCAR-4): > 100 µM (inactive)
- GI50 (OVCAR-5): > 100 µM (inactive)
- GI50 (OVCAR-8): > 100 µM (inactive)
- GI50 (PC-3): > 100 µM (inactive)
- GI50 (SF-268): > 100 µM (inactive)
- GI50 (SF-295): > 100 µM (inactive)
- GI50 (SF-539): > 100 µM (inactive)
- GI50 (SK-MEL-28): > 100 µM (inactive)
- GI50 (SK-MEL-2): > 100 µM (inactive)
- GI50 (SK-MEL-5): > 100 µM (inactive)
- GI50 (SK-OV-3): > 100 µM (inactive)
- GI50 (SN12C): > 100 µM (inactive)
- GI50 (SNB-19): > 100 µM (inactive)
- GI50 (SNB-75): > 100 µM (inactive)
- GI50 (SR): > 100 µM (inactive)
- GI50 (SW-620): > 100 µM (inactive)
- GI50 (T47D): > 100 µM (inactive)
- GI50 (TK-10): > 100 µM (inactive)
- GI50 (U-251): > 100 µM (inactive)
- GI50 (UACC-257): > 100 µM (inactive)
- GI50 (UACC-62): > 100 µM (inactive)
- GI50 (UO-31): > 100 µM (inactive)
